Data: patent publication US6638953B2, “Indole derivatives as 5-HT receptor antagonist” (SmithKline Beecham p.l.c., priority 1995, dated 2003)
Counter-ions that a name gives are not always drawn.

Columns and labels:
[1] = test system: MCPP-induced Hypolocomotion; assay: Reversal of MCPP-induced hypolocomotion; format: in vivo; conditions: po, procedure of WO 94/04533, read-out: ID50 (the source's name)
From the text: Reversal of MCPP-induced Hypolocomotion

SMILES: CSc1cc2c(cc1C(F)(F)F)N(C(=O)Nc1cccc(-c3cccnc3)c1)CC2 [Example 3, 1-[(3-Pyridyl)-3-phenyl Carbamoyl]-5-methylthio-6-trifluoromethyl Indoline]
- ED50 [1]: 0.5 to 5.5 mg/kg
- melting point: 208 to 210 °C

SMILES: COc1cc2c(cc1C(F)(F)F)N(C(=O)Nc1ccc(C)c(-c3cccnc3)c1)CC2 [Example 7, 1-[4-Methyl-3-(3-Pyridyl)phenylcarbamoyl]-5-methoxy-6-trifluoromethyl Indoline]
- ED50 [1]: 0.5 to 5.5 mg/kg
- melting point: 211 to 212 °C

SMILES: COc1cc2c(cc1C(F)(F)F)N(C(=O)Nc1cc(F)cc(-c3cccnc3)c1)CC2 [Example 8, 1-[3-Fluoro-5-(3-pyridyl)phenylcarbamoyl]-5-methoxy-6-trifluoromethyl Indoline]
- ED50 [1]: 0.5 to 5.5 mg/kg

SMILES: COc1cc2c(cc1C(F)(F)F)N(C(=O)Nc1cc(F)cc(-c3cnccc3C)c1)CC2 [Example 21, 1-(3-Fluoro5-(4-methyl-3-pyridyl)phenylcarbamoyl)-5-methoxy-6-trifluoromethylindoline]
- ED50 [1]: 0.5 to 5.5 mg/kg
- melting point: 191 to 195 °C

SMILES: CSc1cc2c(cc1C(F)(F)F)N(C(=O)Nc1ccc(C)c(-c3cccnc3)c1)CC2 [Example 24, 1-(4-Methyl-3-(pyrid-3-yl)phenylcarbamoyl)-5-thiomethyl-6-trifluoromethyl Indoline]
- ED50 [1]: 0.5 to 5.5 mg/kg
- melting point: 221 to 223 °C

SMILES: CSc1cc2c(cc1C(F)(F)F)N(C(=O)Nc1cc(F)cc(-c3cccnc3)c1)CC2 [Example 25, 1-(3-Fluoro-5-(pyrid-3-yl)phenylcarbamoyl)5-thiomethyl-6-trifluoromethyl-indoline Hydrochloride]
- ED50 [1]: 0.5 to 5.5 mg/kg

SMILES: COc1cc2c(cc1C(F)(F)F)N(C(=O)Nc1ccc(Cl)c(-c3cccnc3)c1)CC2 [Example 26, 1-(4-Chloro-3-(pyrid-3-yl)phenylcarbamoyl)-5-methoxy-6-trifluoromethylindoline]
- ED50 [1]: 0.5 to 5.5 mg/kg
- melting point: 210 to 213 °C

SMILES: COc1ccc(NC(=O)N2CCc3cc(OC)c(C(F)(F)F)cc32)cc1-c1cccnc1 [Example 31, 1-[4-Methoxy-3(pyrid-3-yl)phenylcarbamoyl]-5-methoxy-6-trifluoromethylindoline]
- ED50 [1]: 0.5 to 5.5 mg/kg

SMILES: COc1cc2c(cc1C(F)(F)F)N(C(=O)Nc1cccc(-c3cncnc3)c1)CC2 [Example 40, 1-[3-(5-Pyrimidyl)phenylcarbamoyl]-5-methoxy-6-trifluoromethyl-indoline]
- ED50 [1]: 0.5 to 5.5 mg/kg

SMILES: CCc1cc(NC(=O)N2CCc3cc(OC)c(C(F)(F)F)cc32)cc(-c2cccnc2)c1 [Example 42, 1-[5-Ethyl-3-(pyrid-3-yl)phenylcarbamoyl]-5-methoxy-6-trifluoromethylindoline]
- ED50 [1]: 0.5 to 5.5 mg/kg
- melting point: 205 to 207 °C

SMILES: CSc1cc2c(cc1C(F)(F)F)N(C(=O)Nc1ccc(Oc3cccnc3)nc1)CC2 [Example 52]
- ED50 [1]: 0.5 to 5.5 mg/kg
- melting point: 193 to 194 °C

SMILES: COc1cc2c(cc1C(F)(F)F)N(C(=O)Nc1ccc(Oc3cccnc3)nc1)CC2 [Example 53, 5-Methoxy-6-trifluoromethyl-1-[6(pyridin-3-yloxy)pyridin-3-ylcarbamoyl]indoline]
- ED50 [1]: 0.5 to 5.5 mg/kg
- melting point: 202 to 204 °C

SMILES: COc1cc2c(cc1C(F)(F)F)N(C(=O)Nc1ccc(OCc3ccncc3)cc1)CC2 [Example 54, 5-Methoxy-6-trifluoromethyl-1-[4-(pyridin-4-ylmethyloxy)phenyl Carbamoyl]indoline]
- ED50 [1]: 0.5 to 5.5 mg/kg
- melting point: 205 to 207 °C

SMILES: COc1cc2c(cc1C(F)(F)F)N(C(=O)Nc1ccc(OCc3ccncc3)nc1)CC2 [Example 55, 5-Methoxy-6-trifluoromethyl-1-[6-(pyridin-4-ylmethyloxy)pyridin-3-ylcarbamoyl]indoline]
- ED50 [1]: 0.5 to 5.5 mg/kg
- melting point: 187 to 189 °C

SMILES: COc1cc2c(cc1C(F)(F)F)N(C(=O)Nc1ccc(F)c(-c3cccnc3)c1)CC2 [Example 77, 1-[4-Fluoro-3-(3-pyridyl)phenylcarbamoyl]-5-methoxy-6-trifluoromethyl Indoline]
- ED50 [1]: 0.5 to 5.5 mg/kg
- melting point: 210 to 212 °C

SMILES: COc1cc2c(cc1C(F)(F)F)N(C(=O)Nc1cc(F)cc(-c3cncnc3)c1)CC2 [Example 78, 1-[3-Fluoro-5-(pyrimidin-5-yl)phenylcarbamoyl]-5-methoxy-6-trifluoromethyl Indoline]
- ED50 [1]: 0.5 to 5.5 mg/kg

SMILES: COc1cc2c(cc1C(F)(F)F)N(C(=O)Nc1ccc(Cl)c(-c3cnccc3C)c1)CC2 [Example 79, 1-(4-Chloro-3-(4-methyl-3-pyridyl)phenylcarbamoyl]-5-methoxy-6-trifluoromethylindoline]
- ED50 [1]: 0.5 to 5.5 mg/kg

SMILES: COc1cc2c(cc1C(F)(F)F)N(C(=O)Nc1cc3c(c(-c4cccnc4)c1)OCC3)CC2 [Example 80, 1-[2,3-Dihydro-7-(pyrid-3-yl)benzofuran-5-ylcarbamoyl]-5-methoxy-6-trifluoromethyl Indoline]
- ED50 [1]: 0.5 to 5.5 mg/kg

SMILES: COc1cc2c(cc1C(F)(F)F)N(C(=O)Nc1ccc(Oc3cccnc3C)nc1)CC2 [Example 81, 5-Methoxy-6-trifluoromethyl-1-[6-(2-methylpyridin-3-yloxy)pyridin-3-ylcarbamoyl]indoline]
- ED50 [1]: 0.5 to 5.5 mg/kg
- melting point: 227 to 230 °C
